{"source": "paper PMC10462762", "about": "“Chemoenzymatic synthesis of genetically-encoded multivalent liquid N-glycan arrays” (Nature Communications, 2023)", "target": "T1, α-(2→6)-sialyltransferase from Photobacterium damselae (Pd26ST) (Photobacterium damselae, UniProt O66375)", "T1 construct": "gene bst; recombinant, expressed and purified as in supplementary information", "T1 sequence (O66375 16-675)": "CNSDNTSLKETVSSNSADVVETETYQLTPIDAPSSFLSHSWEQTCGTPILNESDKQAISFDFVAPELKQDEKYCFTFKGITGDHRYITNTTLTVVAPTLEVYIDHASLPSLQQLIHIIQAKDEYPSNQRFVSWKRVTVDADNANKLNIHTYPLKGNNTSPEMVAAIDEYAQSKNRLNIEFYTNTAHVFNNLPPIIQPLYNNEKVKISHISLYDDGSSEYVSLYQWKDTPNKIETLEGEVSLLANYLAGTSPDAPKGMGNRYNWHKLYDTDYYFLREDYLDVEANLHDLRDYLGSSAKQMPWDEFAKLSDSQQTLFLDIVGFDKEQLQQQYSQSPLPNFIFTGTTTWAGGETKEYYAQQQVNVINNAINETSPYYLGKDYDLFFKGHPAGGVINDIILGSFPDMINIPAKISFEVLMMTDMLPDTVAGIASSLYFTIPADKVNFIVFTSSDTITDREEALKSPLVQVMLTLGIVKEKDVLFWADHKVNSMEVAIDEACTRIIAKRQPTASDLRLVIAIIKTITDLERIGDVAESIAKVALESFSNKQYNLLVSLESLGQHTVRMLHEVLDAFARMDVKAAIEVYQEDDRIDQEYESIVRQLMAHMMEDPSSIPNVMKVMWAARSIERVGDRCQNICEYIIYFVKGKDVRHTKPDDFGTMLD", "assay": "sialylation of phage-displayed LacNAc / Lac, MALDI-TOF MS", "assay_type": "biochemical", "settings": "donor substrate; acceptor LacNAc- and lactose-phage; 9 h", "data": [{"smiles": "CC(=O)N[C@H]1[C@H]([C@H](O)[C@H](O)CO)O[C@](OP(=O)(O)OC[C@H]2O[C@@H](n3ccc(N)nc3=O)[C@H](O)[C@@H]2O)(C(=O)O)C[C@@H]1O", "note": "[CMP-Neu5Ac]", "values": [{"measurement": "sialylation of phage-displayed LacNAc / Lac, MALDI-TOF MS", "result": "(Pd26ST) and cytidine-5’-monophosphate-N-acetylneuraminic acid (CMP-Neu5Ac)"}]}]}
